Literature values, collected in US8809210B2, “Low roughness high surface-energy, anti-microbial fabric” (priority 2009, dated 2014).

Settings: when covalently bonded to a surface

In the case of `CCCCCCCCCCCCCCCCCC[N+](C)(C)CCC[Si](OC)(OC)OC.[Cl-]` [Si-QAC, 3-(Trimethoxysilyl)-propyldimethyloctadecyl ammonium chloride], the antimicrobial activity is given as “antimicrobial activity”.
